Measurements reported in ChEMBL document CHEMBL3739277, “Design, synthesis, and antibacterial evaluation of novel azolylthioether quinolones as MRSA DNA intercalators” (2015).
Converted amounts (≈) assume the structure as drawn.

How the values were obtained:
Format in all cases: functional
Cyberlindnera jadinii = assay: Antifungal activity against Candida utilis ATCC9950 assessed as growth inhibition incubated at 35 degC for 24 hrs by micro broth dilution method; settings: Williopsis jadinii, ATCC9950, 24 h
Aspergillus flavus = assay: Antifungal activity against Aspergillus flavus ATCC204304 assessed as growth inhibition incubated at 35 degC for 24 hrs by micro broth dilution method; settings: ATCC204304, 24 h
Saccharomyces cerevisiae = assay: Antifungal activity against Saccharomyces cerevisiae ATCC9763 assessed as growth inhibition incubated at 35 degC for 24 hrs by micro broth dilution method; settings: ATCC9763, 24 h
Candida albicans = assay: Antifungal activity against Candida albicans ATCC10231 assessed as growth inhibition incubated at 35 degC for 24 hrs by micro broth dilution method; settings: ATCC10231, 24 h
[1] = Antifungal activity against Candida mycoderma ATCC9888 assessed as growth inhibition incubated at 35 degC for 24 hrs by micro broth dilution method; settings: Kregervanrija fluxuum
Micrococcus luteus = assay: Antibacterial activity against Micrococcus luteus ATCC4698 assessed as growth inhibition incubated at 37 degC for 24 hrs by micro broth dilution method; settings: ATCC4698, 24 h
Bacillus subtilis = assay: Antibacterial activity against Bacillus subtilis ATCC6633 assessed as growth inhibition incubated at 37 degC for 24 hrs by micro broth dilution method; settings: ATCC6633, 24 h
Pseudomonas aeruginosa = assay: Antibacterial activity against Pseudomonas aeruginosa ATCC27853 assessed as growth inhibition incubated at 37 degC for 24 hrs by micro broth dilution method; settings: ATCC27853, 24 h
Escherichia coli = assay: Antibacterial activity against Escherichia coli JM109 assessed as growth inhibition incubated at 37 degC for 24 hrs by micro broth dilution method; settings: JM109, 24 h
[2] = Antibacterial activity against Bacillus proteus ATCC13315 assessed as growth inhibition incubated at 37 degC for 24 hrs by micro broth dilution method; settings: ATCC13315, 24 h
Staphylococcus aureus [3] = assay: Antibacterial activity against methicillin resistant Staphylococcus aureus N315 assessed as growth inhibition incubated at 37 degC for 24 hrs by micro broth dilution method; settings: N315, 24 h
Staphylococcus aureus [4] = assay: Antibacterial activity against Staphylococcus aureus ATCC25923 assessed as growth inhibition incubated at 37 degC for 24 hrs by micro broth dilution method; settings: ATCC25923, 24 h
[5] = Antibacterial activity against Eberthella typhosa ATCC14028 assessed as growth inhibition incubated at 37 degC for 24 hrs by micro broth dilution method; settings: ATCC14028, 24 h

Cn1nnnc1SCC(O)CN1CCN(c2cc3c(cc2F)c(=O)c(C(=O)O)cn3C2CC2)CC1 (stereo unspecified)
MIC80 (Cyberlindnera jadinii): 256 µg/mL (≈ 508 µM)
MIC80 (Aspergillus flavus): 8 µg/mL (≈ 15.9 µM)
MIC80 (Saccharomyces cerevisiae): 8 µg/mL (≈ 15.9 µM)
MIC80 (Candida albicans): 8 µg/mL (≈ 15.9 µM)
MIC80 [1]: 16 µg/mL (≈ 31.8 µM)
MIC (Micrococcus luteus): 8 µg/mL (≈ 15.9 µM)
MIC (Bacillus subtilis): 8 µg/mL (≈ 15.9 µM)
MIC (Pseudomonas aeruginosa): 16 µg/mL (≈ 31.8 µM)
MIC (Escherichia coli): 8 µg/mL (≈ 15.9 µM)
MIC [2]: 4 µg/mL (≈ 7.94 µM)

CCn1cc(C(=O)O)c(=O)c2cc(F)c(N3CCN(CC(O)CSc4ncn(Cc5ccc(Cl)cc5Cl)n4)CC3)cc21 (stereo unspecified)
MIC80 (Cyberlindnera jadinii): 64 µg/mL (≈ 101 µM)
MIC80 (Aspergillus flavus): 4 µg/mL (≈ 6.29 µM)
MIC80 (Saccharomyces cerevisiae): 16 µg/mL (≈ 25.2 µM)
MIC80 (Candida albicans): 64 µg/mL (≈ 101 µM)
MIC80 [1]: 64 µg/mL (≈ 101 µM)
MIC (Micrococcus luteus): 64 µg/mL (≈ 101 µM)
MIC (Staphylococcus aureus [3]): 2 µg/mL (≈ 3.15 µM)
MIC (Staphylococcus aureus [4]): 2 µg/mL (≈ 3.15 µM)
MIC (Bacillus subtilis): 64 µg/mL (≈ 101 µM)
MIC (Pseudomonas aeruginosa): 16 µg/mL (≈ 25.2 µM)
MIC (Escherichia coli): 8 µg/mL (≈ 12.6 µM)
MIC [5]: 32 µg/mL (≈ 50.4 µM)
MIC [2]: 4 µg/mL (≈ 6.29 µM)

Cn1ccnc1SCC(O)CN1CCN(c2cc3c(cc2F)c(=O)c(C(=O)O)cn3C2CC2)CC1 (stereo unspecified)
MIC80 (Cyberlindnera jadinii): 128 µg/mL (≈ 255 µM)
MIC80 (Aspergillus flavus): 64 µg/mL (≈ 128 µM)
MIC80 (Saccharomyces cerevisiae): 32 µg/mL (≈ 63.8 µM)
MIC80 (Candida albicans): 4 µg/mL (≈ 7.97 µM)
MIC80 [1]: 16 µg/mL (≈ 31.9 µM)
MIC (Micrococcus luteus): 4 µg/mL (≈ 7.97 µM)
MIC (Staphylococcus aureus [3]): 2 µg/mL (≈ 3.99 µM)
MIC (Staphylococcus aureus [4]): 2 µg/mL (≈ 3.99 µM)
MIC (Bacillus subtilis): 4 µg/mL (≈ 7.97 µM)
MIC (Pseudomonas aeruginosa): 8 µg/mL (≈ 15.9 µM)
MIC (Escherichia coli): 8 µg/mL (≈ 15.9 µM)
MIC [5]: 1 µg/mL (≈ 1.99 µM)
MIC [2]: 2 µg/mL (≈ 3.99 µM)

CCn1cc(C(=O)O)c(=O)c2cc(F)c(N3CCN(CC(O)CSc4nccn4C)CC3)cc21 (stereo unspecified)
MIC80 (Cyberlindnera jadinii): 64 µg/mL (≈ 131 µM)
MIC80 (Aspergillus flavus): 256 µg/mL (≈ 523 µM)
MIC80 (Saccharomyces cerevisiae): 128 µg/mL (≈ 261 µM)
MIC80 (Candida albicans): 16 µg/mL (≈ 32.7 µM)
MIC80 [1]: 64 µg/mL (≈ 131 µM)
MIC (Micrococcus luteus): 32 µg/mL (≈ 65.4 µM)
MIC (Staphylococcus aureus [3]): 64 µg/mL (≈ 131 µM)
MIC (Staphylococcus aureus [4]): 16 µg/mL (≈ 32.7 µM)
MIC (Bacillus subtilis): 16 µg/mL (≈ 32.7 µM)
MIC (Pseudomonas aeruginosa): 64 µg/mL (≈ 131 µM)
MIC (Escherichia coli): 8 µg/mL (≈ 16.3 µM)
MIC [5]: 16 µg/mL (≈ 32.7 µM)
MIC [2]: 64 µg/mL (≈ 131 µM)

Sc1ncn(Cc2ccc(Cl)cc2Cl)n1
MIC80 (Cyberlindnera jadinii): 512 µg/mL (≈ 1970 µM)
MIC80 (Aspergillus flavus): 256 µg/mL (≈ 984 µM)
MIC80 (Saccharomyces cerevisiae): 512 µg/mL (≈ 1970 µM)
MIC80 (Candida albicans): 512 µg/mL (≈ 1970 µM)
MIC80 [1]: 128 µg/mL (≈ 492 µM)
MIC (Micrococcus luteus): 128 µg/mL (≈ 492 µM)
MIC (Staphylococcus aureus [3]): 128 µg/mL (≈ 492 µM)
MIC (Staphylococcus aureus [4]): 512 µg/mL (≈ 1970 µM)
MIC (Bacillus subtilis): 512 µg/mL (≈ 1970 µM)
MIC (Pseudomonas aeruginosa): 256 µg/mL (≈ 984 µM)
MIC (Escherichia coli): 256 µg/mL (≈ 984 µM)
MIC [5]: 256 µg/mL (≈ 984 µM)
MIC [2]: 512 µg/mL (≈ 1970 µM)

O=C(O)c1cn(C2CC2)c2c(Cl)c(N3CCC(NCC(O)CSc4ncn(Cc5ccc(Cl)cc5Cl)n4)C3)c(F)cc2c1=O (stereo unspecified)
MIC80 (Cyberlindnera jadinii): 16 µg/mL (≈ 23.5 µM)
MIC80 (Aspergillus flavus): 64 µg/mL (≈ 93.8 µM)
MIC80 (Saccharomyces cerevisiae): 64 µg/mL (≈ 93.8 µM)
MIC80 (Candida albicans): 16 µg/mL (≈ 23.5 µM)
MIC80 [1]: 4 µg/mL (≈ 5.87 µM)
MIC (Micrococcus luteus): 4 µg/mL (≈ 5.87 µM)
MIC (Staphylococcus aureus [3]): 8 µg/mL (≈ 11.7 µM)
MIC (Staphylococcus aureus [4]): 2 µg/mL (≈ 2.93 µM)
MIC (Bacillus subtilis): 0.5 µg/mL (≈ 0.733 µM)
MIC (Pseudomonas aeruginosa): 1 µg/mL (≈ 1.47 µM)
MIC (Escherichia coli): 1 µg/mL (≈ 1.47 µM)
MIC [5]: 1 µg/mL (≈ 1.47 µM)
MIC [2]: 0.5 µg/mL (≈ 0.733 µM)

O=C(O)c1cn(C2CC2)c2cc(N3CCNCC3)c(F)cc2c1=O [CIPROFLOXACIN]
MIC (Bacillus subtilis): 1 µg/mL (≈ 3.02 µM)
MIC (Pseudomonas aeruginosa): 1 µg/mL (≈ 3.02 µM)
MIC [5]: 1 µg/mL (≈ 3.02 µM)
MIC [2]: 1 µg/mL (≈ 3.02 µM)

O=C(O)c1cn(C2CC2)c2c(Cl)c(N3CCC(NCC(O)Cn4cnc(S)n4)C3)c(F)cc2c1=O (stereo unspecified)
MIC80 (Cyberlindnera jadinii): 4 µg/mL (≈ 7.65 µM)
MIC80 (Aspergillus flavus): 8 µg/mL (≈ 15.3 µM)
MIC80 (Saccharomyces cerevisiae): 8 µg/mL (≈ 15.3 µM)
MIC80 (Candida albicans): 2 µg/mL (≈ 3.82 µM)
MIC80 [1]: 8 µg/mL (≈ 15.3 µM)
MIC (Micrococcus luteus): 2 µg/mL (≈ 3.82 µM)
MIC (Staphylococcus aureus [3]): 4 µg/mL (≈ 7.65 µM)
MIC (Staphylococcus aureus [4]): 0.5 µg/mL (≈ 0.956 µM)
MIC (Bacillus subtilis): 0.5 µg/mL (≈ 0.956 µM)
MIC (Pseudomonas aeruginosa): 4 µg/mL (≈ 7.65 µM)
MIC (Escherichia coli): 1 µg/mL (≈ 1.91 µM)
MIC [5]: 0.5 µg/mL (≈ 0.956 µM)
MIC [2]: 1 µg/mL (≈ 1.91 µM)

CCn1cc(C(=O)O)c(=O)c2cc(F)c(N3CCN(CC4CO4)CC3)cc21 (stereo unspecified)
MIC80 (Cyberlindnera jadinii): 8 µg/mL (≈ 21.3 µM)
MIC80 (Aspergillus flavus): 1 µg/mL (≈ 2.66 µM)
MIC80 (Saccharomyces cerevisiae): 1 µg/mL (≈ 2.66 µM)
MIC80 (Candida albicans): 4 µg/mL (≈ 10.7 µM)
MIC80 [1]: 1 µg/mL (≈ 2.66 µM)
MIC (Micrococcus luteus): 8 µg/mL (≈ 21.3 µM)
MIC (Staphylococcus aureus [3]): 2 µg/mL (≈ 5.33 µM)
MIC (Staphylococcus aureus [4]): 8 µg/mL (≈ 21.3 µM)
MIC (Bacillus subtilis): 64 µg/mL (≈ 170 µM)
MIC (Pseudomonas aeruginosa): 16 µg/mL (≈ 42.6 µM)
MIC (Escherichia coli): 2 µg/mL (≈ 5.33 µM)
MIC [5]: 16 µg/mL (≈ 42.6 µM)
MIC [2]: 4 µg/mL (≈ 10.7 µM)

O=C(O)c1cn(C2CC2)c2cc(N3CCN(CC(O)CSc4ncn(Cc5ccc(Cl)c(Cl)c5)n4)CC3)c(F)cc2c1=O (stereo unspecified)
MIC80 (Cyberlindnera jadinii): 2 µg/mL (≈ 3.09 µM)
MIC80 (Aspergillus flavus): 16 µg/mL (≈ 24.7 µM)
MIC80 (Saccharomyces cerevisiae): 32 µg/mL (≈ 49.4 µM)
MIC80 (Candida albicans): 16 µg/mL (≈ 24.7 µM)
MIC80 [1]: 8 µg/mL (≈ 12.4 µM)
MIC (Micrococcus luteus): 1 µg/mL (≈ 1.54 µM)
MIC (Staphylococcus aureus [3]): 1 µg/mL (≈ 1.54 µM)
MIC (Staphylococcus aureus [4]): 0.5 µg/mL (≈ 0.772 µM)
MIC (Bacillus subtilis): 0.5 µg/mL (≈ 0.772 µM)
MIC (Pseudomonas aeruginosa): 2 µg/mL (≈ 3.09 µM)
MIC (Escherichia coli): 1 µg/mL (≈ 1.54 µM)
MIC [5]: 0.5 µg/mL (≈ 0.772 µM)
MIC [2]: 0.5 µg/mL (≈ 0.772 µM)

CCn1cc(C(=O)O)c(=O)c2cc(F)c(N3CCN(CC(O)Cn4cnc(S)n4)CC3)cc21 (stereo unspecified)
MIC80 (Cyberlindnera jadinii): 64 µg/mL (≈ 134 µM)
MIC80 (Aspergillus flavus): 512 µg/mL (≈ 1070 µM)
MIC80 (Saccharomyces cerevisiae): 128 µg/mL (≈ 269 µM)
MIC80 (Candida albicans): 128 µg/mL (≈ 269 µM)
MIC80 [1]: 128 µg/mL (≈ 269 µM)
MIC (Micrococcus luteus): 64 µg/mL (≈ 134 µM)
MIC (Staphylococcus aureus [3]): 64 µg/mL (≈ 134 µM)
MIC (Staphylococcus aureus [4]): 128 µg/mL (≈ 269 µM)
MIC (Bacillus subtilis): 128 µg/mL (≈ 269 µM)
MIC (Pseudomonas aeruginosa): 64 µg/mL (≈ 134 µM)
MIC (Escherichia coli): 64 µg/mL (≈ 134 µM)
MIC [5]: 64 µg/mL (≈ 134 µM)
MIC [2]: 128 µg/mL (≈ 269 µM)
